Test [1] has as its system TEAD-independent minimal TNT1 gene promoter. Kind of test: Minimal TNT1 promoter-luciferase (minP-LUC) reporter in RaVSMCs. Type of test: cell-based, rat. The conditions noted are these: 6 h. As to the method:
Figure 3 Compound 3 inhibits TEAD target gene expression, cell proliferation, and cell migration. HeLa cells (A) and RaVSMCs (B) were transfected with CCN1-LUC, CTGF-LUC or minimal promoter-LUC (minP-LUC) reporter plasmids and treated with indicated concentrations of compound 3 for 6 h. Cell lysates were assayed for fire-fly luciferase activity (n = 3). HeLa cells (C) and RaVSMCs (D) were treated with indicated concentrations of compound 3 for 18 h, followed by a 6 h labeling with 10 μM EdU (n = 4). HeLa cells (E) and RaVSMCs (F) were treated with the indicated concentrations of compound 3 and migration quantified using a real-time IncuCyte scratch wound assay (n = 4). * = p < 0.05, ** = p < 0.01, *** = p < 0.001.
TNT1-minP reporter containing the Troponin-T minimal promoter was generated by digesting 8xGTIIC-luciferase plasmid (Addgene #34615) with Kpn1 and BglII to remove the TEAD elements, followed by blunt end re-ligation. A 2.177 kb fragment of the human CCN1 promoter containing two proximal TEAD elements (Hg19;chr1:86044316–chr1:86046493) was described previously[39] and cloned into pGL4-luciferase (Promega). The proximal promoter regions of the CTGF (Hg19;chr6:132272455–132272687) promoter, containing a consensus TEAD-binding element, was amplified by PCR from human genomic DNA and cloned into the Kpn1 and Nhe1 sites of pGL4-luciferase. […]

Test [2] addresses T1, TEAD1 (Homo sapiens, UniProt P28347).
T1 construct: #18881 (FLAG-YAP); host or cells: HeLa
The test is described as follows: GAL4-TEAD1 fusion / 5xGAL4-secNLUC reporter in HeLa cells. The test is classed as cell-based. To be noted: 100 μM, 6 h. From the text:
(§1) TEAD proteins (TEAD1–4) display a high degree of sequence conservation in residues that create the hydrophobic pocket that is essential for YAP binding.[51] YAP proteins also display a high degree of conservation in residues that interact with this pocket.[51] We therefore tested whether CPD3.1 was able to inhibit YAP-induced activity of TEAD1, TEAD2, TEAD3, and TEAD4. To quantify the effect of CPD3.1 on the activity of each individual TEAD paralog, while excluding interference from endogenously expressed TEAD1–4 proteins, we expressed each TEAD paralog (TEAD1–4) fused to the yeast GAL4 DNA-binding domain. Cells were transfected with the GAL4–TEAD expression vector together with a secreted nanoluciferase reporter gene vector under control of a promoter containing five GAL4 DNA-binding elements. This system allows us to study the effect of CPD3.1 on the activity of each individual TEAD protein in isolation, without interference from endogenously expressed transcription factors. In addition, the cells were co-transfected with a YAP expression vector to activate the GAL4–TEAD fusion-dependent transcription (see Supplement Figure 9). Basal activities of TEAD1, TEAD2, TEAD3, and TEAD4 were inhibited by CPD3.1 (Figure 7A–D). […]
(§2) Figure 7 Compound 3.1 inhibits TEAD1, TEAD2, TEAD3, and TEAD4 activities. […] Secreted nano-luciferase activity was quantified in the conditioned media. […]

Test [3] deals with T2, TEAD3 (Homo sapiens, UniProt Q99594).
T2 construct: #18881 (FLAG-YAP); host or cells: HeLa
Kind of test: GAL4-TEAD3 fusion / 5xGAL4-secNLUC reporter in HeLa cells. Type of test: cell-based. The conditions noted are these: 100 μM, 6 h.
Excerpt: as §1, §2

Test [4] has as its system CCN1 protein. Kind of test: Western blotting of CCN1 protein in VSMC lysates. To be noted: indicated concentrations, 16 hr. Type of test: cell-based. As for the experimental part: Figure 9 Compound 3.1 inhibits TEAD target gene expression, cell proliferation, and cell migration in RaVSMCs. RaVSMCs stably transduced with TEAD-NLUC (A) or transiently transfected with CCN1-LUC or CTGF-LUC were treated with the indicated concentrations of compound 3.1 for 6 hr. Cell conditioned media (A) or cell lysates (B−C) were assayed for nanoluciferase or fire-fly luciferase activity, respectively. VSMC were treated with 60 μM compound 3.1 for 6 h (n = 3). Total RNA was analyzed for mRNA levels of TEAD-target genes (D) or constitutive housekeeping genes (E) by qRT-PCR. VSMC were treated with indicated concentrations of compound 3.1 for 16 hr (n = 4). Total cell lysates were analyzed for CCN1 protein expression by Western blotting (F). RaVSMCs (G) or HuVSMC (H) were treated with indicated concentrations of compound 3.1 for 18 h followed by labeling in 10 μM EdU for a further 6 h (n = 4). RaVSMCs (I) or HuVSMC (J) were treated with indicated concentrations of compound 3.1 and cell migration quantified using IncuCyte real time migration assay (n = 4).
Extracted samples were separated by 4–12% SDS-polyacrylamide gel electrophoresis (Bio-Rad) and transferred to poly(vinylidene difluoride) membranes (GE Healthcare). Membranes were blocked in 5% low-fat milk in 10 mM Tris pH 7.6, 150 mM NaCl, 0.2% Tween. […]

This is an account of results in article PMC6701825, “Antiproliferative and Antimigratory Effects of a Novel YAP–TEAD Interaction Inhibitor Identified Using in Silico Molecular Docking” (Journal of Medicinal Chemistry, 2019).

T1 sequence (P28347 whole entry): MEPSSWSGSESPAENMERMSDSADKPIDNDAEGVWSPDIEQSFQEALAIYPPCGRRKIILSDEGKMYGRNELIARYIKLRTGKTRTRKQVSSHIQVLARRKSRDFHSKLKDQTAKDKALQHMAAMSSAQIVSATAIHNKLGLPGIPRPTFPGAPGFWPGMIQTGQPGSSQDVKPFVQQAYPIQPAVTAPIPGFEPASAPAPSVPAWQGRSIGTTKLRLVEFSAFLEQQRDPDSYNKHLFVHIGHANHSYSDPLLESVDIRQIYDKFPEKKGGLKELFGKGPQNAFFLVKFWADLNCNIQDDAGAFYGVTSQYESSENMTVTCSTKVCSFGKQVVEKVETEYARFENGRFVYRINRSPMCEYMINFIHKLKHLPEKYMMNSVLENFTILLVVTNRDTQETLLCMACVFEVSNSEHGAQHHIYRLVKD
T2 sequence (Q99594 whole entry): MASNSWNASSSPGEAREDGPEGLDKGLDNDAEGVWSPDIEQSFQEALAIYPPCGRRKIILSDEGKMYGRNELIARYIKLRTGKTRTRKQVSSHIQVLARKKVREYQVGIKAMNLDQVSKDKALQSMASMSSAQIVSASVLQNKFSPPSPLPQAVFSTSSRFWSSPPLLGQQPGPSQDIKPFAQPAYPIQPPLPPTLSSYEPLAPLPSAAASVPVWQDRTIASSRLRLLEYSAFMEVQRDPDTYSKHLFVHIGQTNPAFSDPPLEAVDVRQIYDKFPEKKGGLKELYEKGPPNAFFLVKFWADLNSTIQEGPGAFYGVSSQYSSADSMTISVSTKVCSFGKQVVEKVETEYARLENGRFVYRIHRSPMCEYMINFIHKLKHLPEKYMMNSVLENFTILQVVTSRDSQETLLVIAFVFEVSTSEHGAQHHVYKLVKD

For `Cc1ccc2c(c1)c1c3n2CCN(CC(O)CN2CCN(C(=O)c4ccco4)CC2)C3CCC1` (stereo not drawn) [CPD3], in test [1], the “activity of TEAD-independent minimal TNT1 promoter (minP-LUC)” value is recorded as “not inhibited by any concentration”.

As to `Cc1ccc2c(c1)c1c3n2CCNC3CCC1` (stereo not drawn) [CPD3.1], the “basal activity of GAL4-TEAD1” value in test [2] is recorded as “inhibited”. The “YAP-stimulated activity of GAL4-TEAD1” value in test [2] (YAP overexpression) is reported as “significantly inhibited”. Also, the “basal activity of GAL4-TEAD3” value in test [3] was “inhibited”. Also, in test [3] (YAP overexpression), the “YAP-stimulated activity of GAL4-TEAD3” value is “significantly inhibited”. Besides, the “CCN1 protein levels (Western blot)” value in test [4] is recorded as “inhibited the expression of CCN1 protein levels”.
